# Assay results as given in the supplement of paper PMC11061612.
# Legend:
# 42-MG-BA (Glioblastoma) = test: combination Emax (second highest fraction inhibited in the dose matrix, 72 h); higher = more inhibition; extreme values may be limits of the assay
# Procedure, shortened: (§1)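 Cell lines in DMEM/F12 or RPMI with 10% FBS were plated in 1536-well plates, held 24 hours at 37°C, 5% CO2, then given two-drug dose matrices for 72 hours (DMSO typically 0.2%). Viability was read by CellTiter-Glo 2.0 luminescence and scaled as inhibition from 0 (vehicle wells) to 1 (blank wells). Combination Emax is the second-highest inhibition in the matrix; Bliss excess is observed combination effect minus expected EA + EB − EA·EB, EA and EB being single-agent effects.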
# [1] = system: KYSE-520 (Esophageal Squamous Cell Carcinoma); test: as above
# Procedure, shortened: as §1
# [2] = system: HO-1-N-1 (Oral Cavity Carcinoma); test: as above
# Procedure, shortened: as §1
# [3] = system: NCI-H2085 (Non-Small Cell Lung Carcinoma); test: as above
# Procedure, shortened: as §1
# [4] = system: LNCaP-Clone-FGC (Prostate Carcinoma); test: as above
# Procedure, shortened: as §1
# [5] = system: ME-1 (Acute Myeloid Leukemia); test: as above
# Procedure, shortened: as §1
# KELLY (Neuroblastoma) = test: as above
# Procedure, shortened: as §1
# AGS (Gastric Carcinoma) = test: as above
# Procedure, shortened: as §1
# [6] = system: LU-135 (Small Cell Lung Carcinoma); test: as above
# Procedure, shortened: as §1
# [7] = system: HuP-T4 (Pancreatic Carcinoma); test: as above
# Procedure, shortened: as §1
# [8] = system: LB831-BLC (Bladder Carcinoma); test: as above
# Procedure, shortened: as §1
# HOS (Osteosarcoma) [9] = test: as above
# Procedure, shortened: as §1
# [10] = system: HT-1376 (Bladder Carcinoma); test: as above
# Procedure, shortened: as §1
# [11] = system: OVCA420 (Ovarian Carcinoma); test: as above
# Procedure, shortened: as §1
# [12] = system: CCRF-CEM (T-Lymphoblastic Leukemia); test: Bliss excess, mean over the matrix (fraction); higher = more synergy
# Procedure, shortened: as §1
# NOS-1 (Osteosarcoma) = test: as above
# Procedure, shortened: as §1
# [13] = system: RO82-W-1 (Thyroid Gland Carcinoma); test: as above
# Procedure, shortened: as §1
# [14] = system: NCI-H2085 (Non-Small Cell Lung Carcinoma); test: as above
# Procedure, shortened: as §1
# HOS (Osteosarcoma) [15] = test: as above
# Procedure, shortened: as §1
# 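Throughout, for Bliss excess, mean over the matrix: after 72 h of two-drug dosing.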
SMILES,combination Emax (42-MG-BA (Glioblastoma)),combination Emax [1],combination Emax [2],combination Emax [3],combination Emax [4],combination Emax [5],combination Emax (KELLY (Neuroblastoma)),combination Emax (AGS (Gastric Carcinoma)),combination Emax [6],combination Emax [7],combination Emax [8],combination Emax (HOS (Osteosarcoma) [9]),combination Emax [10],combination Emax [11],Bliss excess [12],Bliss excess (NOS-1 (Osteosarcoma)),Bliss excess [13],Bliss excess [14],Bliss excess (HOS (Osteosarcoma) [15])
"COc1cccc(OCCCN)c1-c1cc(Nc2cnc(C#N)cn2)n[nH]1 [Prexasertib] + Cc1cc2ncnn2cc1Nc1ncc2c(n1)n(C1CCOCC1)c(=O)n2C [AZD7648] (first compound max 1 µM, 7x7, partner max 10 µM)",0.908,0.728,0.927,0.825,0.83,0.622,1,0.48,0.584,0.839,0.314,0.826,0.571,0.699,-0.0076,0.0514,-0.058,-0.0481,-0.0393
"COc1cccc2c1C(=O)c1c(O)c3c(c(O)c1C2=O)C[C@@](O)(C(=O)CO)C[C@@H]3O[C@H]1C[C@H](N)[C@H](O)[C@H](C)O1 [Doxorubicin] + Cc1cc2ncnn2cc1Nc1ncc2c(n1)n(C1CCOCC1)c(=O)n2C [AZD7648] (first compound max 1 µM, 7x7, partner max 10 µM)",0.925,0.295,0.979,0.546,0.819,0.355,0.789,0.986,0.817,0.657,0.871,0.972,0.182,0.224,0.123,0.0202,-0.0346,0.0299,0.145
"COc1cccc(OCCCN)c1-c1cc(Nc2cnc(C#N)cn2)n[nH]1 [Prexasertib] + CN(C)CCCOc1ccc(-c2ccc3ncc4c(c3c2)n(C2CCOCC2)c(=O)n4C)cn1 [AZD0156] (first compound max 1 µM, 7x7, partner max 1 µM)",0.937,0.725,0.913,0.92,0.827,0.622,1,0.537,0.554,0.84,0.413,0.854,0.471,0.676,-0.058,0.0551,-0.0684,0.006,-0.0434
"CCc1c2c(nc3ccc(O)cc13)-c1cc3c(c(=O)n1C2)COC(=O)[C@]3(O)CC [SN-38] + O=C(c1cc(Cc2n[nH]c(=O)c3ccccc23)ccc1F)N1CCN(C(=O)C2CC2)CC1 [Olaparib] (first compound max 0.3 µM, 7x7, partner max 10 µM)",1,,1,0.132,,0.497,0.884,0.884,0.843,0.948,0.85,0.96,0.0829,,0.0463,-0.0251,-0.0448,-0.0181,0.0819
"CN(C)CCCOc1ccc(-c2ccc3ncc4c(c3c2)n(C2CCOCC2)c(=O)n4C)cn1 [AZD0156] + C[C@@H]1COCCN1C2=NC(=NC(=C2)C3(CC3)[S@](=N)(=O)C)C4=C5C=CNC5=NC=C4 [AZD6738] (first compound max 1 µM, 7x7, partner max 10 µM)",0.701,0.603,0.809,0.824,0.737,0.394,0.987,0.706,0.599,0.46,0.23,0.706,0.655,0.545,0.0002,-0.0241,-0.0649,0.0274,0.024
"C=CCn1c(=O)c2cnc(Nc3ccc(N4CCN(C)CC4)cc3)nc2n1-c1cccc(C(C)(C)O)n1 [AZD1775] + O=C(c1cc(Cc2n[nH]c(=O)c3ccccc23)ccc1F)N1CCN(C(=O)C2CC2)CC1 [Olaparib] (first compound max 1 µM, partner max 10 µM)",0.278,0.399,0.437,0.566,0.77,0.455,0.988,0.547,0.642,0.251,0.607,0.417,0.425,0.881,-0.0381,0.0285,-0.0724,-0.0353,-0.0389
"COc1cccc(OCCCN)c1-c1cc(Nc2cnc(C#N)cn2)n[nH]1 [Prexasertib] + C=CCn1c(=O)c2cnc(Nc3ccc(N4CCN(C)CC4)cc3)nc2n1-c1cccc(C(C)(C)O)n1 [AZD1775] (first compound max 1 µM, partner max 1 µM)",0.941,0.735,0.985,0.94,0.846,0.599,1,0.901,0.655,0.882,0.836,0.97,0.422,0.726,0.0186,0.0924,-0.126,0.124,0.0888
"CN(C)CCCOc1ccc(-c2ccc3ncc4c(c3c2)n(C2CCOCC2)c(=O)n4C)cn1 [AZD0156] + C=CCn1c(=O)c2cnc(Nc3ccc(N4CCN(C)CC4)cc3)nc2n1-c1cccc(C(C)(C)O)n1 [AZD1775] (first compound max 1 µM, partner max 1 µM)",0.29,0.32,0.348,0.6,0.738,0.413,1,0.478,0.644,0.217,0.388,0.24,0.294,0.141,0.0192,-0.0113,-0.119,-0.0406,-0.0196
"COc1cccc(OCCCN)c1-c1cc(Nc2cnc(C#N)cn2)n[nH]1 [Prexasertib] + C[C@@H]1COCCN1C2=NC(=NC(=C2)C3(CC3)[S@](=N)(=O)C)C4=C5C=CNC5=NC=C4 [AZD6738] (first compound max 1 µM, 7x7, partner max 10 µM)",0.904,0.728,0.898,0.872,0.842,0.633,1,0.663,0.634,0.808,0.363,0.902,0.503,0.692,-0.0013,0.0721,0.005,-0.0092,0.0261
"Cc1cc2ncnn2cc1Nc1ncc2c(n1)n(C1CCOCC1)c(=O)n2C [AZD7648] + O=C(c1cc(Cc2n[nH]c(=O)c3ccccc23)ccc1F)N1CCN(C(=O)C2CC2)CC1 [Olaparib] (first compound max 10 µM, 7x7, partner max 10 µM)",0.464,0.234,0.324,0.036,0.533,0.172,0.362,0.204,0.394,0.141,0.253,0.195,0.0682,0.0465,-0.0213,-0.0278,-0.0639,-0.0444,0.0023
"CCN(CCO)CCCOc1ccc2c(Nc3cc(CC(=O)Nc4cccc(F)c4)[nH]n3)ncnc2c1 [AZD2811] + O=C(c1cc(Cc2n[nH]c(=O)c3ccccc23)ccc1F)N1CCN(C(=O)C2CC2)CC1 [Olaparib] (first compound max 1 µM, 7x7, partner max 10 µM)",0.464,0.21,0.824,0.62,0.495,0.394,0.788,0.302,0.88,0.289,0.268,0.0874,0.218,0.137,-0.0134,0.0085,-0.0564,-0.0109,-0.0188
"COc1cccc(OCCCN)c1-c1cc(Nc2cnc(C#N)cn2)n[nH]1 [Prexasertib] + O=C(c1cc(Cc2n[nH]c(=O)c3ccccc23)ccc1F)N1CCN(C(=O)C2CC2)CC1 [Olaparib] (first compound max 1 µM, 7x7, partner max 10 µM)",0.908,0.548,0.938,0.587,0.851,0.61,0.98,0.426,0.493,0.851,0.448,0.854,0.479,0.733,0.0024,0.0177,-0.0731,-0.208,-0.0168
"COc1cc2c(cc1OCCCCCOc1cc3c(cc1OC)C(=O)N1C=C(C)C[C@H]1C=N3)N=C[C@@H]1CC(C)=CN1C2=O [SG3199] + O=C(c1cc(Cc2n[nH]c(=O)c3ccccc23)ccc1F)N1CCN(C(=O)C2CC2)CC1 [Olaparib] (first compound max 0.001 µM, 7x7, partner max 10 µM)",0.247,0.133,0.103,0.059,0.416,0.163,0.375,0.248,0.354,0.0469,0.159,0.105,0.121,0.0795,-0.0045,-0.0275,-0.0704,-0.0323,-0.0232
"C[C@@H]1COCCN1c1cc(C2([S@](C)(=N)=O)CC2)nc(-c2ccnc3[nH]ccc23)n1 [AZD6738] + O=C(c1cc(Cc2n[nH]c(=O)c3ccccc23)ccc1F)N1CCN(C(=O)C2CC2)CC1 [Olaparib] (first compound max 10 µM, 7x7, partner max 10 µM)",0.576,,0.839,0.43,0.73,0.538,0.897,0.604,0.604,0.331,0.373,0.685,0.456,0.364,0.0377,0.0554,-0.098,-0.0571,0.0132
